Source: PMC6407917, “Identification of GSK3186899/DDD853651 as a Preclinical Development Candidate for the Treatment of Visceral Leishmaniasis” (Journal of Medicinal Chemistry, 2018)

Experiments:
Assay in all cases: biochemical
Parameters in all cases: species or system HEK293/K-562/placenta mixed human extract; Kinobeads chemoproteomic competition binding, quantified by TMT LC-MS/MS, dose response up to 20 uM
ABL2 = ABL2 (Homo sapiens, UniProt P42684)
BTK = BTK (Homo sapiens, UniProt Q06187)
CDK10 = CDK10 (Homo sapiens, UniProt Q15131)
CSNK1D = CSNK1D (Homo sapiens, UniProt P48730)
Chain of CSNK1D (P48730 whole entry): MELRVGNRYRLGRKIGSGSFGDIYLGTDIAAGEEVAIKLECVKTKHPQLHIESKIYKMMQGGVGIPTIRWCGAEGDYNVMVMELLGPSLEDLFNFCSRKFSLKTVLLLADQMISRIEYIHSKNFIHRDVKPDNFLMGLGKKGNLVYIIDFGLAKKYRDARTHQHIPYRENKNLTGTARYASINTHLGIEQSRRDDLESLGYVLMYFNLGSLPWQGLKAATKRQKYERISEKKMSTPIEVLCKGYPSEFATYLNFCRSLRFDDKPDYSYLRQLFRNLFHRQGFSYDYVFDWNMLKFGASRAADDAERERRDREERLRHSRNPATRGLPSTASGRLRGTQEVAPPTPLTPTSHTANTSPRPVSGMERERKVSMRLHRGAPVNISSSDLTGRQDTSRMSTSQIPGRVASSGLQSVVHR

DYRK1A = DYRK1A (Homo sapiens, UniProt Q13627)
DYRK2 = DYRK2 (Homo sapiens, UniProt Q92630)
EPHB1 = EPHB1 (Homo sapiens, UniProt P54762)
Chain of EPHB1 (P54762 whole entry): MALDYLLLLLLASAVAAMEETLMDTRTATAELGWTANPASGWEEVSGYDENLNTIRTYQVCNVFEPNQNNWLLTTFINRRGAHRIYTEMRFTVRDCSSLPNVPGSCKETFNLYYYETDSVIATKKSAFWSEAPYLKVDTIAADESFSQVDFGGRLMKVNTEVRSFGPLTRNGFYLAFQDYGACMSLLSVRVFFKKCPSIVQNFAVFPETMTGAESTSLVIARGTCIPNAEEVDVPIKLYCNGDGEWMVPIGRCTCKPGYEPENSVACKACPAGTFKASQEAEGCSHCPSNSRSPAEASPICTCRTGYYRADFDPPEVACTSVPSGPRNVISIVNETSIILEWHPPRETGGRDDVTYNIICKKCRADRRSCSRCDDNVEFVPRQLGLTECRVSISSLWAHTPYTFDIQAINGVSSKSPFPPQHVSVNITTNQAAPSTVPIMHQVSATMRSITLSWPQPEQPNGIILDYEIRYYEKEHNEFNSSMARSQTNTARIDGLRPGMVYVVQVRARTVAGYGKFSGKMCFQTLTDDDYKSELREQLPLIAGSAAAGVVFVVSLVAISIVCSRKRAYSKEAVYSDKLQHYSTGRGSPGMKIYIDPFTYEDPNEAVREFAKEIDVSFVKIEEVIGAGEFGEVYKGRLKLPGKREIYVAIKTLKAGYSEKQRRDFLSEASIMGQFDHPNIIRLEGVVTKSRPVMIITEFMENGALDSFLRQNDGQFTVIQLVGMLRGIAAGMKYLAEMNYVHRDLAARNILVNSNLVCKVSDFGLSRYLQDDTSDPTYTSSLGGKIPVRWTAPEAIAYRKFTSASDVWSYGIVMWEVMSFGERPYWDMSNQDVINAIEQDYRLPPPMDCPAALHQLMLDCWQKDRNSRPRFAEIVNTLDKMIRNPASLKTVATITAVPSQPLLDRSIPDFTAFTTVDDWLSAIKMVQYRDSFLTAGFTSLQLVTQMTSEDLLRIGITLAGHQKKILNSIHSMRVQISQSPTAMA

IRAK1 = IRAK1 (Homo sapiens, UniProt P51617)
Chain of IRAK1 (P51617 whole entry): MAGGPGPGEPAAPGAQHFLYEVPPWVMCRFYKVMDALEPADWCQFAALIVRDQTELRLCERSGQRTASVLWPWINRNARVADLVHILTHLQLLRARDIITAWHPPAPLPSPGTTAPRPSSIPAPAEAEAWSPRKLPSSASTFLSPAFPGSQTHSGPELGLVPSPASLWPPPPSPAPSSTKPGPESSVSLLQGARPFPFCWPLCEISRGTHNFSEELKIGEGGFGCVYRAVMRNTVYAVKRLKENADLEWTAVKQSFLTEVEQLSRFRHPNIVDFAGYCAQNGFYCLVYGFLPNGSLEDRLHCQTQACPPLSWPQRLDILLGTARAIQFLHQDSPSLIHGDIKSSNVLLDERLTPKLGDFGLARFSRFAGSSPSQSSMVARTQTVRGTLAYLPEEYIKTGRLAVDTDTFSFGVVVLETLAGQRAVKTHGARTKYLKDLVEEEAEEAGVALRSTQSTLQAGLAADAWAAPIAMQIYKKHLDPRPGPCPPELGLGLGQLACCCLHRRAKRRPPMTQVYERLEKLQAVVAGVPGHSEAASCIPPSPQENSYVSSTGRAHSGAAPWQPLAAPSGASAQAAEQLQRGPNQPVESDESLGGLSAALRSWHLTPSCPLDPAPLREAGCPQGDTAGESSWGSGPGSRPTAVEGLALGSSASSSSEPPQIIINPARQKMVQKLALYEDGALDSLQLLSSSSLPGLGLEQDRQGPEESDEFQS

JAK3 = JAK3 (Homo sapiens, UniProt P52333)
MAP2K1 = MAP2K1 (Homo sapiens, UniProt Q02750)
MAP3K4 = MAP3K4 (Homo sapiens, UniProt Q9Y6R4)
MAPK9 = MAPK9 (Homo sapiens, UniProt P45984)
NRK = NRK (Homo sapiens, UniProt Q7Z2Y5)
NTRK1 = NTRK1 (Homo sapiens, UniProt P04629)
Chain of NTRK1 (P04629 whole entry): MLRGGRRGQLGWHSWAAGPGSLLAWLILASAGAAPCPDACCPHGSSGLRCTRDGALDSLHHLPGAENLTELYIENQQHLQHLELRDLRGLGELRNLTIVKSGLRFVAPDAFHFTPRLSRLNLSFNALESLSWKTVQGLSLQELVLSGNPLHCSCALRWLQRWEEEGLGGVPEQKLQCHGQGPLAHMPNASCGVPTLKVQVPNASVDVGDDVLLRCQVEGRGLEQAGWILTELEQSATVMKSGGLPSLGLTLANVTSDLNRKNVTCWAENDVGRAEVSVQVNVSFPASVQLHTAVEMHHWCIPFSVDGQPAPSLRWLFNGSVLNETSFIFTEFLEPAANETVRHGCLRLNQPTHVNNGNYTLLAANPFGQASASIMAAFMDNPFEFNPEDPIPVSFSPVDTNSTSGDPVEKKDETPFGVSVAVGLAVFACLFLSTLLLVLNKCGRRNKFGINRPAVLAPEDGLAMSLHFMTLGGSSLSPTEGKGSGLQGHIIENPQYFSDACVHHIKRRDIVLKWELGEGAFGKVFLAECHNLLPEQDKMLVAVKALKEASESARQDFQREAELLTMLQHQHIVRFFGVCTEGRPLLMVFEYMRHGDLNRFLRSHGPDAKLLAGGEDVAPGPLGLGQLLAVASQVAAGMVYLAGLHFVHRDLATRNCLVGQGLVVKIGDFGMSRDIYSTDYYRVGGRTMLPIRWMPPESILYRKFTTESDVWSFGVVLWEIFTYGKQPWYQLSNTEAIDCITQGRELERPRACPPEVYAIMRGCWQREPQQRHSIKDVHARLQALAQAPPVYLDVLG

PAK4 = PAK4 (Homo sapiens, UniProt O96013)
RIPK4 = RIPK4 (Homo sapiens, UniProt P57078)
ROCK2 = ROCK2 (Homo sapiens, UniProt O75116)
Chain of ROCK2 (O75116 whole entry): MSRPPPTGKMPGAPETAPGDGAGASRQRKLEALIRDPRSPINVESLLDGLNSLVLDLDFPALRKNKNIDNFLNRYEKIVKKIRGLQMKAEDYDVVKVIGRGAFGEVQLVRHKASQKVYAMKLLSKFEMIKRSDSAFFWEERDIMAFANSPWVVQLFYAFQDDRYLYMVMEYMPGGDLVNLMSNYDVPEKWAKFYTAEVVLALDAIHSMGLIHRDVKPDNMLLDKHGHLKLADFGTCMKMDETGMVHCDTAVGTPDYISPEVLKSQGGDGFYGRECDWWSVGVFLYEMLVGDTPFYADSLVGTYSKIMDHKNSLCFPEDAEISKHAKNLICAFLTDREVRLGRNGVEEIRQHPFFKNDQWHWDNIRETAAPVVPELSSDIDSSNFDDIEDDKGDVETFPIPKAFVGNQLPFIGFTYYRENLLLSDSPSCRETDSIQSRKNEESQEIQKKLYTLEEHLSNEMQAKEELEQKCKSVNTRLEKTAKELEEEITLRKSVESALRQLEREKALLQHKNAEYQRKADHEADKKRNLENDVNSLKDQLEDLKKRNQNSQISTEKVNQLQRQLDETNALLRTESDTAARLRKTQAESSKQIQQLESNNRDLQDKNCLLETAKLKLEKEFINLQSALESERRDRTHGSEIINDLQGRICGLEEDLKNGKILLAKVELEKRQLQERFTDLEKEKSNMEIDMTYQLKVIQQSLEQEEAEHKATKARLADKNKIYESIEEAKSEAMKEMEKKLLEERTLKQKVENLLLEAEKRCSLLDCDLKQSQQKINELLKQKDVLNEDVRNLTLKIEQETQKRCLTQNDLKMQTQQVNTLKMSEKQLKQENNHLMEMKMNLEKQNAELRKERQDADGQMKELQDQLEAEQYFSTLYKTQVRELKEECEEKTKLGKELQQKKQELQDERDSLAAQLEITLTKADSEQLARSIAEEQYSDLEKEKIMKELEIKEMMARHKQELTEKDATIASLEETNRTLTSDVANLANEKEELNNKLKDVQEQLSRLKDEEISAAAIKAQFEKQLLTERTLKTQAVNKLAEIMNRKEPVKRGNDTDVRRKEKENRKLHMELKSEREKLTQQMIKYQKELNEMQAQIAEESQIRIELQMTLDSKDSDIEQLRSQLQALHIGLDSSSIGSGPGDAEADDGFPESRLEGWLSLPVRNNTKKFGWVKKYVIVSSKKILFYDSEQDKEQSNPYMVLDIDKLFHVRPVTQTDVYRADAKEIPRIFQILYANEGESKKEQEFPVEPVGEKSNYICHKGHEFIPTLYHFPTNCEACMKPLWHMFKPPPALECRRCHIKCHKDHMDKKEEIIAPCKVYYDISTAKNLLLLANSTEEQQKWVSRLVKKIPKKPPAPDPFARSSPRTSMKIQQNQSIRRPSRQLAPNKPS

SIK2 = SIK2 (Homo sapiens, UniProt Q9H0K1)
SRC = SRC (Homo sapiens, UniProt P12931)
TYK2 = TYK2 (Homo sapiens, UniProt P29597)
YES1 = YES1 (Homo sapiens, UniProt P07947)
Chain of YES1 (P07947 whole entry): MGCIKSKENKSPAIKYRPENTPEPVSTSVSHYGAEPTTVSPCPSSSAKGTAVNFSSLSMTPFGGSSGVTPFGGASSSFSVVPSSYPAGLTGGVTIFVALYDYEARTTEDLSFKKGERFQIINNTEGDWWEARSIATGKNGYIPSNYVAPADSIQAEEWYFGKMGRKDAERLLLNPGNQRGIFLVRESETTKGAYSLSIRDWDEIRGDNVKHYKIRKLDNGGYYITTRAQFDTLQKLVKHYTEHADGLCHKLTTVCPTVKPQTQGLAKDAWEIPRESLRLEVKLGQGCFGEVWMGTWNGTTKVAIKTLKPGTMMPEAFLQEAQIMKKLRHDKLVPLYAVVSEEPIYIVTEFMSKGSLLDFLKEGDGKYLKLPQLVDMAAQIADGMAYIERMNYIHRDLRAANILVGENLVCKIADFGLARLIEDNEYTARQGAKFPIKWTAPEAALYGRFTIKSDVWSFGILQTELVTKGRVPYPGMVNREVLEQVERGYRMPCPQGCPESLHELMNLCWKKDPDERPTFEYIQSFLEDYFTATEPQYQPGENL

Measured: IC50

COc1nc(N[C@H]2CC[C@H](NS(=O)(=O)CC(C)C)CC2)nc2[nH]nc(N3CCOC[C@H]3C)c12 [compound 39, N-(trans-4-((4-Methoxy-3-((R)-3-methylmorpholino)-1H-pyrazolo[3,4-d]pyrimidin-6-yl)amino)cyclohexyl)-2-methylpropane-1-sulfonamide]
≥ 20 µM: all assays above
